Columns and labels:
A498 = test: NCI-60 anticancer screen (SRB; single dose and five doses); details: Homo sapiens
MOLT-4 = test: as above; details: Homo sapiens
TK-10 = test: as above; details: Homo sapiens
HCC-2998 = test: as above
HOP-62 = test: as above; details: Homo sapiens
SK-MEL-5 = test: as above; details: Homo sapiens
DU-145 = test: as above; details: Homo sapiens
SNB-19 = test: cells; details: Homo sapiens
MDA-MB-435 = test: NCI-60 anticancer screen (SRB; single dose and five doses); details: Homo sapiens
PC-3 = test: as above; details: Homo sapiens
BT-549 = test: as above; details: Homo sapiens
T-47D = test: as above; details: Homo sapiens, T47D
786-0 = test: as above; details: Homo sapiens
SN12C = test: as above; details: Homo sapiens
SF-295 = test: as above; details: Homo sapiens
SF-539 = test: as above; details: Homo sapiens
SK-OV-3 = test: as above; details: Homo sapiens
NCI-H23 = test: as above; details: Homo sapiens
MALME-3M = test: as above; details: Homo sapiens
M14 = test: as above; details: Homo sapiens
SW-620 = test: as above; details: Homo sapiens
RXF 393 = test: as above; details: Homo sapiens
SK-MEL-28 = test: as above; details: Homo sapiens
CCRF-CEM = test: NCI-60 anticancer screen (SRB; single dose 10 μM and five doses); details: Homo sapiens
OVCAR-4 = test: NCI-60 anticancer screen (SRB; single dose and five doses); details: Homo sapiens
MDA-MB-231/ATCC = test: as above; details: Homo sapiens
UACC-257 = test: as above; details: Homo sapiens
HL-60(TB) = test: as above; details: Homo sapiens
[1] = 48 h, read-out: Growth Percentage

## COc1cc(/C=C/C(=O)c2sc(=S)[nH]c2C)cc(OC)c1OC [2p, (E)-1-(4-Methyl-2-Thioxo-2,3-Dihydrothiazol-5-yl)-3-(3,4,5-Trimethoxyphenyl)Prop-2-En-1-One]
A498; A498
  GI50: 11.5 µM
  IC50: 43.6 µM
A498; A498, 48 h, read-out: Growth Percentage, A498, dose of 10 μM
  activity at 10 µM: 96.5%
A498; A498, read-out: LC50
  CC50: > 100 µM
A498; A498, read-out: TGI
  IC (TGI): 34.7 µM
MOLT-4; MOLT-4
  GI50: 2880 nM
  IC50: 4.17 µM
MOLT-4; MOLT-4, 48 h, read-out: Growth Percentage
  activity at 10 µM: 9.11%
MOLT-4; MOLT-4, read-out: LC50
  CC50: > 100 µM
MOLT-4; MOLT-4, read-out: TGI
  IC (TGI): 22.9 µM
TK-10; TK-10
  GI50: 5.01 µM
  IC50: 16.2 µM
TK-10; TK-10, 48 h, read-out: Growth Percentage
  activity at 10 µM: 53%
TK-10; TK-10, read-out: LC50
  CC50: 47.9 µM
TK-10; TK-10, read-out: TGI
  IC (TGI): 17.8 µM
HCC-2998; Homo sapiens, HCC 2998
  GI50: 5.13 µM
  IC50: 11.8 µM
HCC-2998; Homo sapiens, HCC 2998, 48 h, read-out: Growth Percentage
  activity at 10 µM: 19%
HCC-2998; Homo sapiens, HCC 2998, read-out: LC50
  CC50: 44.7 µM
HCC-2998; five-dose, Colon Cancer HCC-2998
  TGI: 17.38 µM
HOP-62; HOP-62
  GI50: 3.16 µM
  IC50: 5.37 µM
HOP-62; HOP-62, 48 h, read-out: Growth Percentage
  activity at 10 µM: 4.61%
HOP-62; HOP-62, read-out: LC50
  CC50: > 100 µM
HOP-62; HOP-62, read-out: TGI
  IC (TGI): 16.2 µM
SK-MEL-5; SK-MEL-5
  GI50: 1580 nM
  IC50: 3.31 µM
SK-MEL-5; SK-MEL-5, 48 h, read-out: Growth Percentage
  activity at 10 µM: -64.6%
SK-MEL-5; SK-MEL-5, read-out: LC50
  CC50: 10 µM
SK-MEL-5; SK-MEL-5, read-out: TGI
  IC (TGI): 3.98 µM
DU-145; DU-145
  GI50: 3.24 µM
  IC50: 5.75 µM
DU-145; DU-145, 48 h, read-out: Growth Percentage
  activity at 10 µM: 12.9%
DU-145; DU-145, read-out: LC50
  CC50: 69.2 µM
DU-145; DU-145, read-out: TGI
  IC (TGI): 15.5 µM
SNB-19; SNB-19
  GI50: 5.01 µM
  IC50: 13.2 µM
SNB-19; SNB-19, 48 h, read-out: Growth Percentage
  activity at 10 µM: 19.6%
SNB-19; SNB-19, read-out: LC50
  CC50: 43.6 µM
SNB-19; SNB-19, read-out: TGI
  IC (TGI): 17.8 µM
MDA-MB-435; MDA-MB-435
  GI50: 2570 nM
  IC50: 4.47 µM
MDA-MB-435; MDA-MB-435, 48 h, read-out: Growth Percentage
  activity at 10 µM: 11%
MDA-MB-435; MDA-MB-435, read-out: LC50
  CC50: > 100 µM
MDA-MB-435; MDA-MB-435, read-out: TGI
  IC (TGI): 10.5 µM
PC-3; PC-3
  GI50: 5.01 µM
  IC50: 8.91 µM
PC-3; PC-3, 48 h, read-out: Growth Percentage
  activity at 10 µM: 35.7%
PC-3; PC-3, read-out: LC50
  CC50: > 100 µM
PC-3; PC-3, read-out: TGI
  IC (TGI): 41.7 µM
BT-549; BT-549
  GI50: 2950 nM
  IC50: 11.8 µM
BT-549; BT-549, 48 h, read-out: Growth Percentage
  activity at 10 µM: -11.8%
BT-549; BT-549, read-out: TGI
  IC (TGI): 10.7 µM
T-47D
  GI50: 2190 nM
  IC50: 7.24 µM
T-47D; [1]
  activity at 10 µM: -1.59%
T-47D; read-out: LC50
  CC50: > 100 µM
T-47D; read-out: TGI
  IC (TGI): 13.2 µM
786-0; 786-0
  GI50: 4.57 µM
  IC50: 6.61 µM
786-0; 786-0, 48 h, read-out: Growth Percentage
  activity at 10 µM: 21.1%
786-0; 786-0, read-out: LC50
  CC50: 97.7 µM
786-0; 786-0, read-out: TGI
  IC (TGI): 20.9 µM
SN12C
  GI50: 2290 nM
  IC50: 3.89 µM
SN12C; [1]
  activity at 10 µM: 7.3%
SN12C; read-out: LC50
  CC50: 46.8 µM
SN12C; read-out: TGI
  IC (TGI): 9.55 µM
SF-295; SF-295
  GI50: 5.5 µM
  IC50: 14.5 µM
SF-295; SF-295, 48 h, read-out: Growth Percentage
  activity at 10 µM: 42.3%
SF-295; SF-295, read-out: LC50
  CC50: 66.1 µM
SF-295; SF-295, read-out: TGI
  IC (TGI): 21.4 µM
SF-539; SF-539
  GI50: 2190 nM
  IC50: 4.47 µM
SF-539; SF-539, 48 h, read-out: Growth Percentage
  activity at 10 µM: -13.9%
SF-539; SF-539, read-out: TGI
  IC (TGI): 5.5 µM
SK-OV-3; SK-OV-3
  GI50: 7.41 µM
  IC50: 46.8 µM
SK-OV-3; SK-OV-3, 48 h, read-out: Growth Percentage
  activity at 10 µM: 31.2%
SK-OV-3; SK-OV-3, read-out: LC50
  CC50: > 100 µM
SK-OV-3; SK-OV-3, read-out: TGI
  IC (TGI): > 100 µM
NCI-H23; NCI-H23
  GI50: 2950 nM
  IC50: 5.25 µM
NCI-H23; NCI-H23, 48 h, read-out: Growth Percentage
  activity at 10 µM: 7.27%
NCI-H23; NCI-H23, read-out: LC50
  CC50: 44.7 µM
NCI-H23; NCI-H23, read-out: TGI
  IC (TGI): 10.5 µM
MALME-3M
  GI50: 5.75 µM
  IC50: 17.8 µM
MALME-3M; read-out: LC50
  CC50: 55 µM
MALME-3M; read-out: TGI
  IC (TGI): 20.4 µM
M14; M14
  GI50: 3.24 µM
  IC50: 5.13 µM
M14; M14, 48 h, read-out: Growth Percentage
  activity at 10 µM: 15.4%
M14; M14, read-out: TGI
  IC (TGI): 13.2 µM
SW-620; SW-620
  GI50: 2570 nM
  IC50: 3.72 µM
SW-620; SW-620, 48 h, read-out: Growth Percentage
  activity at 10 µM: 6.92%
SW-620; SW-620, read-out: LC50
  CC50: 46.8 µM
SW-620; SW-620, read-out: TGI
  IC (TGI): 9.77 µM
RXF 393; RXF 393
  GI50: 2510 nM
  IC50: 11.2 µM
RXF 393; RXF 393, 48 h, read-out: Growth Percentage
  activity at 10 µM: 30.3%
RXF 393; RXF 393, read-out: LC50
  CC50: 30.9 µM
RXF 393; RXF 393, read-out: TGI
  IC (TGI): 7.08 µM
SK-MEL-28; SK-MEL-28
  GI50: 4.07 µM
  IC50: 9.12 µM
SK-MEL-28; SK-MEL-28, 48 h, read-out: Growth Percentage
  activity at 10 µM: 24.2%
SK-MEL-28; SK-MEL-28, read-out: LC50
  CC50: 57.5 µM
SK-MEL-28; SK-MEL-28, read-out: TGI
  IC (TGI): 17.4 µM
CCRF-CEM
  GI50: 2450 nM
CCRF-CEM; [1]
  activity at 10 µM: 4.92%
CCRF-CEM; five-dose, Leukemia CCRF-CEM
  IC50: 3.55 µM
CCRF-CEM; read-out: TGI
  IC (TGI): 8.71 µM
OVCAR-4; OVCAR-4
  GI50: 2820 nM
  IC50: 6.61 µM
OVCAR-4; OVCAR-4, 48 h, read-out: Growth Percentage
  activity at 10 µM: 15.6%
OVCAR-4; OVCAR-4, read-out: LC50
  CC50: 51.3 µM
OVCAR-4; OVCAR-4, read-out: TGI
  IC (TGI): 12.6 µM
MDA-MB-231/ATCC; MDA-MB-231
  GI50: 3.24 µM
  IC50: 10 µM
MDA-MB-231/ATCC; MDA-MB-231, 48 h, read-out: Growth Percentage
  activity at 10 µM: 2.51%
MDA-MB-231/ATCC; MDA-MB-231, read-out: LC50
  CC50: > 100 µM
MDA-MB-231/ATCC; MDA-MB-231, read-out: TGI
  IC (TGI): 13.2 µM
UACC-257; UACC-257
  GI50: 5.13 µM
  IC50: 18.6 µM
UACC-257; UACC-257, 48 h, read-out: Growth Percentage
  activity at 10 µM: 42.1%
UACC-257; UACC-257, read-out: LC50
  CC50: 75.9 µM
UACC-257; UACC-257, read-out: TGI
  IC (TGI): 21.9 µM
HL-60(TB); HL-60
  GI50: 2570 nM
  IC50: 3.89 µM
HL-60(TB); HL-60, 48 h, read-out: Growth Percentage
  activity at 10 µM: 3.95%
HL-60(TB); HL-60, read-out: LC50
  CC50: > 100 µM
HL-60(TB); HL-60, read-out: TGI
  IC (TGI): 11.2 µM
